{"source": "patent US20030165585A1", "about": "“Xanthine-containing compositions for oral administration and uses related thereto” (priority 2002, published 2003)", "format_in_all_cases": "in vivo, human", "key": {"subjects [1]": {"tested_on": "subjects", "test": "Stimulant effect: scores in video game of skill Pilot Wing before and after consuming composition", "conditions": "five subjects, crossover over three days, Formulation I vs 180 mg caffeine vs placebo", "description": "Five subjects were tested over a period of three days. […] Both prior to and after consuming the composition, each subject played a video game of skill called Pilot Wing™ made by Nintendo™."}, "subjects [2]": {"tested_on": "subjects", "test": "Standard short-term memory test (repeating a read series of numbers backward)", "conditions": "three of the five subjects; test 30 minutes after ingestion", "description": "The test consisted of an examiner reading a series of numbers to the subject and the subject subsequently being asked to repeat said numbers backward. In all cases, the test was initiated 30 minutes after ingestion of the composition."}, "[3]": {"test": "Weight loss in overweight subjects, daily administration over two weeks", "conditions": "Formulation I (ten subjects) vs 180 mg caffeine capsules (five) vs placebo (five), FIG. 1", "description": "Weights were averaged and weight loss was charted every three days in all groups."}}, "data": [{"smiles": "Cn1c(=O)c2c(ncn2C)n(C)c1=O", "note": "[caffeine]", "values": [{"measurement": "video game scores after consuming the composition", "setting": "subjects [1]", "result": "higher scores after consuming the caffeine, compared to consuming the placebo"}, {"measurement": "digits repeated backwards without error", "setting": "subjects [2]", "result": "could not repeat this accomplishment"}, {"measurement": "weight loss compared between groups", "setting": "[3]", "result": "not matched"}]}]}
